Starred links: 1 amine or outer side, 2 acyl side, 3 side chain; linkers in the order of their positions; H or OH if unused. Positions of bridges follow the written chain, without caps; N, C: chain ends. Non-standard residues stand in square brackets, D forms with d. Residues, ends and D or L forms follow the SMILES beside them. Chains are numbered I, II in the order given. Actinocin(1to9) = Cc1c2oc3c(C)ccc(C(=O)[*:2])c3nc-2c(C(=O)[*:1])c(N)c1=O; NMeV = CN[C@H](C(=O)O)C(C)C; Sar = CNCC(=O)O
Target: recombinant CpLDH protein (Cryptosporidium parvum, UniProt Q9GT92, F198L/K295E/R251K)

In order of falling “MEAN CpLDH INHIBITION (%)” value:
1. N#Cc1cn([C@@H]2O[C@H](CO)[C@@H](O)[C@H]2O)c2ncnc(N)c12 [NSC63701]  -0.31%
2. O=S(=O)(c1cccc(N=C=S)c1)c1cccc(N=C=S)c1 [NSC140911]  -0.44%
3. CCC1CN2CCc3cc(OC)c(OC)cc3C2CC1CC1c2cc(OC)c(OC)cc2CCN1C(=O)C(Cc1c[nH]c2ccccc12)NC(=O)OC(C)(C)C (stereo not shown) [NSC109350]  -1.18%
4. COc1cc2c[n+](C)c3c4cc5c(cc4ccc3c2cc1OC)OCO5.[Cl-] [NSC146397]  -1.75%
5. CC[C@H](C)[C@@H]1NC(=O)[C@@H](NC(=O)c2c3nc4c(C(=O)N[C@@H]5C(=O)N[C@@H](C(C)C)C(=O)N6CCC[C@H]6C(=O)N(C)CC(=O)N(C)[C@@H](C(C)C)C(=O)O[C@@H]5C)ccc(C)c4oc-3c(C)c(=O)c2N)[C@@H](C)OC(=O)[C@H](C(C)C)N(C)C(=O)CN(C)C(=O)[C@@H]2CCCN2C1=O [NSC18268] (I: TIP[Sar][NMeV] / II: TVP[Sar][NMeV]; ester I:1-I:C, II:1-II:C; linker I:N-II:N via Actinocin(1to9))  -2.01%
6. O=C1N[C@@H]2C(=C[C@H](O)[C@@H](O)[C@H]2O)c2cc3c(cc21)OCO3 [NSC349155]  -5.62%
7. Clc1cc2nc[nH]c2cc1Cl [NSC326397]  -5.75%
8. COc1ccc(Cc2nc3ccccc3s2)cc1OC [NSC632233]  -7.14%
9. CC(C)CCCCCCCCCCCCC(=O)NCC(=O)NC1C(C)OC(Nc2ncnc3nc[nH]c23)C(O)C1O (stereo not shown) [NSC268251]  -8.04%
10. Cc1c2cnccc2c(C)c2c1c1ccccc1n2CCOC(=O)c1ccccc1 [NSC163443]  -14.23%
11. COC(=O)C1CCC(=O)N1C(c1ccc(OC)cc1)c1cc(OC)c(OC)c(OC)c1 (stereo not shown) [NSC673622]  -14.54%
12. O=C1Oc2ccccc2C(=O)/C1=C1\C=C(c2ccccc2)SS1 [NSC293927]  -15.46%
13. Cc1ccc(NC(=O)C(=O)CC(=O)c2ccccc2)cc1C [NSC636126]  -16.52%
14. COc1ccc(/C=C2\N=C(c3ccccc3)OC2=O)c(OCc2ccccc2)c1 [NSC262665]  -17.00%
15. CCN(CC)Cc1cc(N=Nc2c(O)ccc3c(N=Nc4ccc(O)c(CN(CC)CC)c4)c(O)ccc23)ccc1O.Cl [NSC359463]  -17.14%
16. COC1CC(C)C(OC)c2cc(O)cc(c2O)NC(=O)/C(C)=C\C=C/C(C)C(OC(N)=O)/C(C)=C\C(C)C1OC (stereo not shown) [NSC330500]  -19.04%
17. CN(C)c1ccc(/C=C/C(=O)c2ccccc2)cc1Br [NSC643164]  -21.20%
18. CC1=C(C(=O)NCc2ccccc2)C(c2ccccc2O)C(C(=O)NCc2ccccc2)=C(C)N1 [NSC634928]  -21.25%
19. O=C1C(Cl)=C(N2CCN(C3=C(Cl)C(=O)c4ccccc4C3=O)CC2)C(=O)c2ccccc21 [NSC40341]  -22.69%
20. CCOC(=O)/C(=C/c1ccc(N(C)C)cc1)N(CC)CC [NSC643774]  -24.42%
21. CCOC(OCC)C(CC)[Se]c1ccccc1[N+](=O)[O-] (stereo not shown) [NSC646200]  -24.52%
22. Cl.NCCSSCc1ccccc1CSSCCN [NSC624169]  -25.23%
23. O=C1c2ccccc2-c2c1c1ccccc1c(=O)n2Cc1ccccc1 [NSC337612]  -26.65%
24. O=C(c1nc2ccc(Cl)cc2[nH]c1=O)C(O)c1ccc2c(c1)OCO2 (stereo not shown) [NSC642649]  -27.23%
25. COC(=O)[C@@H]1[C@H](O)[C@H](C)[C@H](O)[C@H](C)/C=C\C=C(/C)C(=O)Nc2c(C)c(OC(C)=O)c3c(c2O)C(=O)C(C)=C2OCOC(=C23)/C(C)=C/[C@@](C)(O)[C@H](O)[C@@H](C)[C@H]1O [NSC19990]  -27.23%
26. COC(=O)c1cc(-c2c[nH]cc2C(=O)OCc2ccccc2)cn1S(=O)(=O)c1ccc(C)cc1 [NSC679527]  -27.66%
27. C=C1C(=O)O[C@H]2/C=C(/C)C(=O)C[C@@H]3OC(C)(C)O[C@@]3(C)C[C@H](OC(=O)/C(C)=C\C)[C@H]12 [NSC329696]  -30.73%
28. N#CC(=C1C=CC(=NO)C=C1)c1ccc(Cl)cc1 [NSC405158]  -30.77%
29. NC1N=C(c2ccc(Cl)cc2)C2=C(N1)c1ccccc1CC2 (stereo not shown) [NSC682864]  -37.11%
30. Cc1ccc2c(ccc(C=Cc3ccc(O)c4ncccc34)[n+]2C)c1 [NSC85700]  -37.65%
31. CCCCCc1cc(/C=C2/N=C(c3ccc[nH]3)C=C2OC)[nH]c1C [NSC47147]  -37.67%
32. Cn1c(=O)[nH]c2nncnc2c1=O [NSC99733]  -38.11%
33. COc1cccc2c1C(=O)c1c(O)c3c(c(O)c1C2=O)C[C@@](O)(C(C)=O)C[C@@H]3OC1CC(N(Cc2ccccc2)Cc2ccccc2)C(O)C(C)O1.Cl (stereo partly shown) [NSC268242]  -40.28%
34. CCCCC(/C=N/N=C(N)N)CC.Cc1cc(O)c(C(C)C)cc1S(=O)(=O)O [NSC66300]  -42.12%
35. [O-][Cl+3]([O-])([O-])[O-].c1ccc(-c2csc3c4ccccc4c4ccccc4[n+]23)cc1 [NSC98904]  -42.18%
36. Cc1ccc(N=Nc2c(O)ccc3ccccc23)cc1 [NSC106296]  -44.71%
37. CCOC(=O)C(CC(C)C)NC(=O)C(Cc1ccc(N(CCCl)CCCl)cc1)NC(C)=O (stereo not shown) [NSC167780]  -51.52%
38. CC1(C)CC2=NO[Se]3=C2C(=NO3)C1 [NSC328587]  -53.59%
39. CN(C)CC1CCC/C(=C\c2ccc(OC(=O)/C=C/c3ccccc3)cc2)C1=O.Cl (stereo not shown) [NSC697443]  -57.12%
40. CCN(CC)CCOc1ccc(C(O)(Cc2ccc(OC)cc2)c2ccccc2)cc1 (stereo not shown) [NSC19857]  -57.96%
41. Cc1nn(-c2ccccc2)c2c1CC(=O)Nc1ccccc1-2 [NSC662553]  -64.36%
42. C=Cc1cc(OC)c2c(c1)c(=O)oc1c2cc(OC)c2c(O)ccc(C3OC(C)C(O)C(C)(O)C3O)c21 (stereo not shown) [NSC354844]  -68.14%
43. CCC1CN2CCc3cc(OC)c(OC)cc3C2CC1CC1c2cc(OC)c(OC)cc2CCN1C(=O)C1CCCN1C(=O)OCc1ccccc1 (stereo not shown) [NSC103248]  -105.50%
44. CC(=O)NCCCCCCNC(C)=O [NSC95580]  -114.38%
45. CCCN(CCC)C(=S)Sc1nc(C)nc(N2CCN(c3nc(C)nc(SC(=S)N(CCC)CCC)c3[N+](=O)[O-])CC2)c1[N+](=O)[O-] [NSC675593]  -141.86%
46. CC[C@@]1(O)C[C@H](O[C@H]2C[C@H](N(C)C)[C@H](O)[C@H](C)O2)c2c(O)c3c(c(O)c2[C@H]1O[C@H]1C[C@H](N(C)C)[C@H](O)[C@H](C)O1)C(=O)c1cccc(O)c1C3=O [NSC136044]  -159.43%

Reference: paper PMC6687188, “Novel lactate dehydrogenase inhibitors with in vivo efficacy against Cryptosporidium parvum” (PLoS Pathogens, 2019)
